Assay results taken from publication PMC9014845 (Clinical cancer research : an official journal of the …, 2019).

Columns and labels:
[1] = Plasma pharmacokinetics; type: in vivo, human
[2] = system: FGFR; assay: Tissue biomarkers in skin and tumor biopsies; type: in vivo, human
[3] = system: monkeys; assay: 4-week repeated-dose toxicity study; type: in vivo, monkey
[4] = Allometric scaling of single dose PK data from mice, rats and monkeys; set-up: species or system human; settings: allometric scaling model of single dose PK data from mice, rats, monkeys
[5] = system: FGFRs 1–3; settings: in vitro, ATP-competitive; cited from earlier work
[6] = system: advanced solid tumors harboring FGFR1–3 gene alterations; assay: Tumor response according to RECIST 1.1

Substance: Debio 1347
- Mean relative oral bioavailability of tablets versus capsules ([1]; 40 mg single dose, cross-over, 90% CI 0.73–1.05, n=9): 0.88
- Time to steady-state (Ctrough) ([1]; majority of patients, once-daily dosing): during the first week of treatment
- Time to detection in plasma ([1]; post-first dose, majority of patients): ≤ 30 min
- Median tmax ([1]; post-first oral dose, range 1.5–24): 3 h
- Plasma half-life (mean) ([1]; post-first oral dose, range 4.7–20.6): 11.5 h
- Mean apparent oral clearance ([1]; range 2.7–13.9): 7.0 L/h
- DUSP6 mRNA expression change in tumor biopsies ([2]; on treatment (day 8), 14 paired biopsies): a decrease in DUSP6 was observed
- Change of phosphorylated markers (pERK, pFRS2, pS6) in skin biopsies ([2]; predose to day 8, 31 biopsy pairs, immunohistochemistry): no clear decrease
- Patients with DUSP6 decrease >50% who achieved a PR ([2]; tumor biopsies): two out of three
- Highest non-severely toxic dose [3]: 4 mg/kg/day
- Predicted plasma half-life in humans [4]: 9 h
- Inhibitory concentration for FGFRs 1–3 [5]: low nanomolar
- Disease stabilization among patients with confirmed FGFR fusions ([6]; 10 patients, doses ≥60 mg/day): 5 patients
- PRs among patients with confirmed FGFR fusions ([6]; 10 patients, doses ≥60 mg/day): 3 patients
- Patients with stable disease as best objective response ([6]; 57 evaluable): 16 patients
- Patients with stable disease showing reduced target lesion size (tumor size regressions of ≤30%) ([6]; 57 evaluable): 10 patients
- Response per independent central radiological review ([6]; one patient with cholangiocarcinoma, 110 mg, changed from partial): confirmed complete response
- Disease control rate (DCR) ([6]; overall): 39%
- Disease control rate (DCR) ([6]; patients with confirmed FGFR fusions, ≥60 mg/day): 80%
- Median treatment duration in patients with disease control ([6]; range 24–47): 34 weeks
